The source of these data is patent publication US20170224643A1, “METHOD FOR AVOIDING OR INHIBITION OF DYSKINESIA” (Research Foundation of the City University of New York, priority 2016, published 2017).

Entries after “also recorded” stand apart in the source; their conditions may differ.

Data set [1] deals with aphakia mouse line, a genetic model of LID. The experiment in a line: aphakia mouse model of LID, three paw dyskinesia scoring. In kind it is in vivo, mice. To be noted: for effect on AIMs induced by daily L-Dopa: aphakia mouse line. The source says: Inhibition of Smo by cyclopamine in thegenetic “aphakia ” model of dyskinesia INCREASES LIDs. Analogous to the use of the unilateral 6-OHDA model of LID, we tested whether Shh signaling effects the formation and display of LID in an independent, genetic model, the well-studied Aphakia mouse model. […] The hypo-dopaminergic state of these animals is thought to be similar to the dopaminergic state of Parkinson's disease patients. It is well established that these mice readily develop LID upon semi chronic dosing with L-Dopa. […] Daily systemic injections of L-Dopa (20 mg/kg, IP) results in progressive display of 3 paw dyskinesia over 7 days (FIG. 3, white bars. Co-injection of cyclopamine (5 mg/kg, IP) together with L-Dopa (20 mg/kg, IP) on day 8 results in a roughly 3 fold increase in 3-paw dyskinesia compared to day 7 (FIG. 3, see d8, black bar). Further daily co-injections of cyclopamine together with L-Dopa (5 mg/kg, IP and 20 mg/kg, IP, resp.) results in further increases in dyskinesia scores reaching 7 fold the score obtained after 7 days of L-Dopa only dosing (FIG. 3, see d11, black bar compared to d7, white bar).
Stimulation of Smo by SAG in a genetic model of dyskinesia DECREASES LIDs. Analogous to testing the effect of cyclopamine, we used the aphakia mouse line to determine whether stimulation of Shh signaling might reduce the display of established LID. We injected daily for 28 days L-Dopa (20 mg/kg; IP). On day 29 we co-injected SAG (20 mg/kg, IP) together with L-Dopa (20 mg/kg, IP). We scored 3 paw dyskinesia at day 28 (FIG. 9: white bar) and day 29 (FIG. 9: black bar) and find a roughly 2 fold reduction in dyskinesia upon SAG dosing.
Movement disorders: official journal of the Movement Disorder Society, 2015. 30(6): p. 788-95.). Analogous to testing the effects of the stimulation of Smo by SAG in the aphakia mouse model of dyskinesia described above we injected daily L-Dopa (25 mg/kg, IP) for 21 days. All animals developed robust dyskinesia scores. On day 21 animals were randomly assigned into 4 groups.

A further data set deals with Parkinson's Patients. To be noted: Pahwa et al. 2015; cited from earlier work.
The test system of data set [2] is Shh-nLacZ^C/C/Dat-Cre mice. Kind of data set: L-Dopa induced dyskinesia in mice with genetic ablation of Shh from dopamine neurons. The class given is in vivo.
The subject of data set [3] is unilateral 6-OHDA model of LID. Kind of data set: unilateral 6-OHDA model of L-Dopa induced dyskinesia, abnormal induced movements (AIMs) scoring. In kind it is in vivo, mice. The source says:
(§1) Assessing dopamine hyper-sensitivity in the unilateral 6-OHDA model of LID. The well-established unilateral 6-OHDA model of LIDs was used in which the injection of the neurotoxin results in unilateral DA hypersensitivity due to a greater than 80% DA neuron degeneration, and subsequent dopamine hypersensitivity. Two weeks after 6-OHDA injection, the degree of functional deficits are quantified by assessing contralateral paw use in a “cylinder test” (FIG. 1). In untreated, 6-OHDA injected animals contralateral paw use during rearing at the glass wall is reduced from random (50%, dotted line) due to the dopaminergic lesion and resulting reduced dopamine secretion (FIG. 1, white bars). Upon dopamine substitution by a single dose of L-Dopa contralateral paw use is increased above random (50% dotted line) due to dopamine hypersensitivity that developed in response to reduced dopamine levels (FIG. 1 black bars).
Inhibition of Smo by cyclopamine INCREASES LIDs After the functional assessment of dopaminergic denervation in the 6-OHDA model of LIDS, LIDs are induced by daily injections of L-Dopa (5 mg/kg, IP) for 13 days followed by quantification of dyskinesia. Abnormal movements are assessed for 1 min every 20 min, over a period of 120 min immediately after L-DOPA administration coinciding with the peak of L-Dopa dependent DA release. Abnormal induced movements (AIMs), clearly distinct from natural stereotyped behaviors (i.e., grooming, sniffing, rearing, and gnawing), are classified following a well-established scheme in the field of dyskinesia research into four different subtypes: locomotive (tight contralateral turns), axial (contralateral dystonic posture of the neck and upper body), limb (jerky and fluttering movements of the limb contralateral to the side of the lesion), and orofacial (vacuous jaw movements and tongue protrusions) (Sebastianutto, I., N. Maslava, C. R. Hopkins, and M. A. Cenci, Validation of an improved scale for rating l-DOPA-induced dyskinesia in the mouse and effects of specific dopamine receptor antagonists. Neurobiology of disease, 2016. 96: p. 156-170.). The co-administration of the Smo antagonist cyclopamine (5 mg/kg, IP) together with L-Dopa (5mg/kg, IP) at day 14 results in an approximately 80% increase in LIDs (FIG. 2, black bar) compared to L-Dopa alone (FIG. 2, white bar).
Stimulation of Smo by SAG DECREASES LIDs. Analogous to the experiments testing the inhibition of Smo, the unilateral 6-OHDA model of LIDs was used to test the effect of activating Smo signaling by the agonist SAG (FIG. 5). Two weeks after 6-OHDA injection, LIDs are induced by daily injections of L-Dopa (5 mg/kg, IP) for 16 days. A gradual increase in the display of dyskinesia was observed from day 4 to day 16 (FIG. 5, white bars). Consistent with the hypothesis and conversely to the facilitation of LIDs by the inhibition of Smo signaling, applicant found about a twofold REDUCTION in the display of LIDs upon the co-administration of a L-Dopa dose (5 mg/kg, […] 5, black bar).
Stimulation of Smo by Purmorphamine DECREASES LIDs. Analogous to the experiments testing the inhibition of Smo, the unilateral 6-OHDA model of LIDs was used to test the effect of activating Smo signaling by the agonist Purmorphamine (PUR). Two weeks after 6-OHDA injection, LIDs are induced by daily injections of L-Dopa (5 mg/kg, IP) for 14 days. A gradual increase in the display of dyskinesia was observed from day 4 to day 11 (FIG. 6, white bars). Consistent with the hypothesis and similar to the results with stimulating Smo with SAG and conversely to the facilitation of LIDs by the inhibition of Smo signaling, applicant finds about 40% REDUCTION in the display of LIDs upon the co-administration of a L-Dopa “challenge” dose (20 mg/kg; IP, i.e. 4×the regular dose) together with the Smo agonist Purmorphamine (15 mg/kg, IP) on day 15 (FIG. 6, black bar). […]

The test system of data set [4] is unilateral 6-OHDA lesioned animals. The experiment in a line: cylinder test of contralateral paw use after unilateral 6-OHDA lesion. The class given is in vivo, mice. The settings on record: single dose L-Dopa 5 mg/kg IP; random = 50%. On the procedure:
FIG. 1 depicts assessment of 6-OHDA induced dopaminergic lesion. All animals of cohorts A and B were lesioned unilaterally by stereotactic injection of 6-OHDA into the dorso-lateral striatum. White bars: saline injected, black bars: L-dopa (5 mg/kg, IP) injected. Unilateral striatal 6-OHDA injection results in […] dopamine hypersensitivity. (**=p<0.001, ***=p<0.0001, t-test; n=9-11/treatment group; mean±SEM);
as §1

The test system of data set [5] is two models of LID (unilateral 6-OHDA model and aphakia mouse line). Kind of data set: meta-analysis of dyskinesia measurements across two models of LID, ratio over L-Dopa only controls. The class given is in vivo, mice. The settings on record: for effect on dyskinesia (words): 6-OHDA model and aphakia mouse line, compared to controls; for reduction in expression of established dyskinesia over L-Dopa only controls: acute stimulation of Smo, combined across models. The source says: Meta-analysis of dyskinesia measurements across two models of LID and three structurally distinct compounds (cyclopamine, SAG, purmorphamine):. A ratiometric expression of LID after treatment with Smo antagonist or agonists over L-Dopa only treated controls allows applicant to present results combined across two distinct models of dyskinesia and three distinct compounds. Setting dyskinesia scores observed in L-Dopa only treated controls as 1 (FIG. 11: dotted line and white bar), we find that inhibition of Smo by cyclopamine results in a 70% INCREASE of dyskinesia (FIG. 11: black bar labeled “a”). Conversely, acute stimulation of Smo by SAG leads to a roughly 2 fold REDUCTION in the expression of established dyskinesia (FIG. 11, black bar labeled “b”) and semi chronic daily dosing with SAG together with L-Dopa (“adjuvants” strategy) leads to about 70% reduction in the formation and display of LIDs (FIG. 11, black bar labeled “c” Consistent and similar to the effect of SAGthe acute stimulation of Smo with Purmorphamine leads to a roughly 2 fold REDUCTION in the display of established LID (FIG. 11, black bar labeled “d”).

As to `NC12CC3CC(CC(C3)C1)C2` [Amantadine], the “reduction of LID” value in data set [1] (amantadine 40 mg/kg IP with L-Dopa 25 mg/kg IP on day 21, did not reach significance) is recorded as “roughly 30%”. Also, the inhibition of dyskinesia in the data set on Parkinson's Patients was 23%.

As to `N[C@@H](Cc1ccc(O)c(O)c1)C(=O)O` [L-Dopa], the “formation of LID” value in data set [2] (daily L-Dopa 10 mg/kg IP, 16 days, mutants, not in litter controls) is “formation of LID over time”. In data set [3] (daily L-Dopa ramped up to 20 mg/kg IP, day 34 compared to day 27), the “increase in LID scores” value stood at 3 fold. Further, the “contralateral paw use during rearing” value in data set [4] is recorded as greater than 50%.

As for `c1ccc2c(Oc3nc(Nc4ccc(N5CCOCC5)cc4)c4ncn(C5CCCCC5)c4n3)cccc2c1` [Purmorphamine], the “reduction in the display of LIDs” value in data set [3] (Purmorphamine 15 mg/kg IP with L-Dopa challenge dose 20 mg/kg IP on day 15) is “about 40%”. Further, the “reduction of AIMs” value in data set [3] (single dose Purmorphamine 15 mg/kg IP co-injected with L-Dopa 20 mg/kg IP after daily L-Dopa 5 mg/kg IP) turned out to be 2 fold. In addition, in data set [5], the “effect on dyskinesia (words)” value is listed as “decrease dyskinesia” and the “reduction in expression of established dyskinesia over L-Dopa only controls” value is on record as “roughly 2 fold”. In addition, the “effect on dyskinesia (words)” value in data set [5] (listed as purmorphamine) is “delayed and weaker/blunted induction and reduced expression of dyskinesia”.

For the compound `CNC1CCC(N(Cc2cccc(-c3ccncc3)c2)C(=O)c2sc3ccccc3c2Cl)CC1` (stereo not shown) [SAG], the “reduction of dyskinesia score compared to day 20” value in data set [2] (single injection SAG 20 mg/kg IP with L-Dopa on day 22, ratio mutants over controls) was “about 10 fold”. Besides, the “LID scores after SAG wash-out” value in data set [3] (L-Dopa 5 mg/kg IP daily without SAG, d16 to d34, after 14 days of L-Dopa/SAG) is on record as “indistinguishable from control groups”. The “effect of chronic dosing with SAG together with L-Dopa on AIMs” value in data set [3] (SAG as adjuvant to daily L-Dopa) is recorded as “reversible, dose dependent build-up of a reduction of abnormal induced movements; also recorded: build-up of a reduction of abnormal induced movements over 7 days”. The reduction of dyskinesia in data set [3] (daily SAG 0.8 mg/kg IP with L-Dopa 5 mg/kg IP, day 12) was 45%; in data set [3] (daily SAG 2.5 mg/kg with L-Dopa 5 mg/kg IP, 4 days of dosing), 50%; in data set [3] (daily SAG 7 mg/kg IP with L-Dopa 5 mg/kg IP, day 4), “about 50%”; in data set [3] (daily SAG 7 mg/kg IP with L-Dopa 5 mg/kg IP, day 14) it was “about 80%”. The “reduction of AIMS scores over the control group” value in data set [3] (daily SAG 10 mg/kg IP with L-Dopa 5 mg/kg IP for 14 days, day 14) is reported as “greater than 2 fold”. Moreover, the “reduction in LIDs compared to controls” value in data set [3] (within subject escalation, SAG 15 mg/kg IP, day 51, L-Dopa 20 mg/kg IP) is given as “greater than 2 fold”. In data set [1] (SAG 20 mg/kg IP with L-Dopa 20 mg/kg IP on day 29, vs day 28), the “reduction in 3 paw dyskinesia” value was “roughly 2 fold”. The “reduction in the display of LID” value in data set [1] (SAG 20 mg/kg IP with L-Dopa 25 mg/kg IP on day 21, compared to controls) turned out to be 2 fold. Moreover, in data set [1], the “effect on AIMs induced by daily L-Dopa” value is given as “decreases abnormal induced movements”. Further, in data set [5], the “effect on dyskinesia (words)” value was “decrease dyskinesia; also recorded: delayed and weaker/blunted induction and reduced expression of dyskinesia”. For the same compound, the “reduction in expression of established dyskinesia over L-Dopa only controls” value in data set [5] is “roughly 2 fold”. Also, the “reduction in the formation and display of LIDs over L-Dopa only controls” value in data set [5] (semi chronic daily dosing with SAG together with L-Dopa) is recorded as “about 70%”.

`CC1=C2C[C@H]3[C@@H](CC=C4C[C@@H](O)CC[C@@]43C)[C@@H]2CC[C@]12O[C@@H]1C[C@H](C)CN[C@H]1[C@H]2C` [cyclopamine]: in data set [1], the “effect on AIMs induced by daily L-Dopa” value was “increases abnormal induced movements”. In addition, in data set [1] (cyclopamine 5 mg/kg IP with L-Dopa 20 mg/kg IP on day 8, compared to day 7), the “increase in 3-paw dyskinesia” value was “roughly 3 fold”. Besides, the “dyskinesia score relative to 7 days of L-Dopa only dosing” value in data set [1] (daily cyclopamine 5 mg/kg IP with L-Dopa 20 mg/kg IP, d11 compared to d7) is 7 fold. The “effect on dyskinesia (words)” value in data set [5] is “more rapid induction and stronger expression of dyskinesia”; in data set [5] (listed as Cyclopamine) it was “increases dyskinesia”. In addition, the “increase of dyskinesia over L-Dopa only controls” value in data set [5] (combined across two models, controls set to 1) stood at 70%.
